Measurements taken from patent US10940188B2, “Compounds and methods for treatment and prevention of Flavivirus infection” (priority 2016, dated 2021).
Structures can show the parent of a compound that is named as a salt. Where two headings read alike, the source gives them in different places.

What was measured:
[1] = test system: ZIKV-induced caspase 3/7 activity in human astrocytes; assay: Caspase 3/7 activity assay, ZIKV-infected human astrocytes; assay type: cell-based; settings: ZIKV-infected human astrocytes; for IC50: read-out: Caspase 3 (IC50, uM) Astrocyte; for Emax: read-out: Caspase 3 (efficacy, %) Astrocyte
Procedure: (§1) Caspase-Glo 3/7 assay kit (catalog number G8092; Promega, Madison, Wis.) was used to detect caspase 3/7 activity. Reagents were reconstituted as described in the protocol from the manufacturer. Polystyrene plates (384-well and 1536-well; regular tissue culture treated and PDL coated) were purchased from Greiner Bio-One (Monroe, N.C.). Cells were seeded in 384- and 1536-well assay plates and cultured at 37° C. with 5% CO2 for 16 hours. ZIKV solution was added to cells, followed by incubation at 37° C. with 5% CO2 for 6 hours. Caspase-Glo 3/7 was added to each well, unless otherwise specified, and incubated at room temperature for 30 minutes. The luminescence intensity of the assay plates was measured using a ViewLux plate reader (PerkinElmer). Data were normalized by using the cell-containing wells without ZIKV as a negative control (0% induction of caspase 3/7 activity) and wells containing ZIKV infected cells that induced caspase 3/7 activity were used as a positive control (100% induction of caspase 3/7 activity). […]
(§2) Caspase-Glo 3/7 assay kit (Promega) was used to detect caspase 3/7 activity. Reagents were reconstituted as described in the protocol from the manufacturer. Cells were seeded in 384- and 1536-well assay plates and cultured at 37° C. with 5% CO2 for 16 hours. ZIKV solution was added to cells, followed by incubation at 37° C. with 5% CO2 for 6 hours. Caspase-Glo 3/7 was added to each well at a 1:1 ratio, unless otherwise specified, and incubated at room temperature for 30 minutes. The luminescence intensity of the assay plates was measured using a ViewLux plate reader (PerkinElmer). Data was normalized by using the cell-containing wells without ZIKV as a negative (0% induction of caspase 3/7 activity) control and wells containing ZIKV infected cells that induced caspase 3/7 activity were used as a positive control (100% induction of caspase 3/7 activity). […]

[2] = test system: ZIKV-induced caspase 3/7 activity in SNB-19 cells; assay: Caspase 3/7 activity assay, ZIKV-infected SNB-19 cells; assay type: cell-based; settings: ZIKV-infected SNB-19 cells; for IC50: read-out: Caspase 3 (IC50, uM) SNB-19; for Emax: read-out: Caspase 3 (efficacy, %) SNB-19
Procedure: as §1, §2

[3] = test system: ZIKV-induced caspase 3/7 activity in hNPCs; assay: Caspase 3/7 activity assay, ZIKV-infected hNPCs; assay type: cell-based; settings: ZIKV-infected hNPCs; for IC50: read-out: Caspase 3 (IC50, uM) NPCs; for Emax: read-out: Caspase 3 (efficacy, %) NPCs
Procedure: Caspase-Glo 3/7 assay kit (catalog number G8092; Promega, Madison, Wis.) was used to detect caspase 3/7 activity. Reagents were reconstituted as described in the protocol from the manufacturer. Polystyrene plates (384-well and 1536-well; regular tissue culture treated and PDL coated) were purchased from Greiner Bio-One (Monroe, N.C.). Cells were seeded in 384- and 1536-well assay plates and cultured at 37° C. with 5% CO2 for 16 hours. ZIKV solution was added to cells, followed by incubation at 37° C. with 5% CO2 for 6 hours. Caspase-Glo 3/7 was added to each well, unless otherwise specified, and incubated at room temperature for 30 minutes. The luminescence intensity of the assay plates was measured using a ViewLux plate reader (PerkinElmer). Data were normalized by using the cell-containing wells without ZIKV as a negative control (0% induction of caspase 3/7 activity) and wells containing ZIKV infected cells that induced caspase 3/7 activity were used as a positive control (100% induction of caspase 3/7 activity).
Human NPCs were seeded onto PDL coated 1536-well assay plates at 250 cells per 3 μl/well and incubated at 37° C. in 5% CO2 for 16 hours. Test compounds dissolved in DMSO were transferred to assay plates at a volume of 23 nl/well by an automated pintool workstation (Wako Automation, San Diego, Calif.). Compounds were incubated with cells for 30 minutes at 37° C. in 5% CO2, immediately followed by the addition of 2 μl/well of ZIKV. Incubation time of compound-treated cells with ZIKV varied based on assay format. Experiments measuring virus-induced caspase 3/7 activity required a 6 hour incubation of ZIKV in the presence compounds at 37° C. in 5% CO2. Following this incubation, 3.5 μl/well of caspase 3/7 reagent mixture was added to assay plates. The plates were incubated for 30 minutes at room temperature, and the resultant luminescence signal was measured using a ViewLux plate reader (Perkin Elmer). Experiments measuring virus-induced cell death required a 72-hour incubation of ZIKV in the presence of compounds at 37° C. in 5% CO2. Following this incubation, 3.5 μl/well of ATP content detection reagent was added to assay plates, incubated for 30 minutes at the room temperature, and the resultant luminescence signal was measured in a ViewLux plate reader.
Caspase-Glo 3/7 assay kit (Promega) was used to detect caspase 3/7 activity. Reagents were reconstituted as described in the protocol from the manufacturer. Cells were seeded in 384- and 1536-well assay plates and cultured at 37° C. with 5% CO2 for 16 hours. ZIKV solution was added to cells, followed by incubation at 37° C. with 5% CO2 for 6 hours. Caspase-Glo 3/7 was added to each well at a 1:1 ratio, unless otherwise specified, and incubated at room temperature for 30 minutes. The luminescence intensity of the assay plates was measured using a ViewLux plate reader (PerkinElmer). Data was normalized by using the cell-containing wells without ZIKV as a negative (0% induction of caspase 3/7 activity) control and wells containing ZIKV infected cells that induced caspase 3/7 activity were used as a positive control (100% induction of caspase 3/7 activity).
Human NPCs were seeded onto PDL coated 1536-well assay plates at 250 cells per 3 μl/well and incubated at 37° C. in 5% CO2 for 16 hours. Test compounds dissolved in DMSO were transferred to assay plates at a volume of 23 nl/well by an automated pintool workstation (Wako Automation, San Diego, Calif.). Compounds were incubated with cells for 30 minutes at 37° C. in 5% CO2, immediately followed by the addition of 2 μl/well of ZIKV. Incubation time of compound-treated cells with ZIKV varied based on assay format. Experiments measuring virus induced caspase 3/7 activity required a 6 hour incubation of ZIKV in the presence compounds at 37° C. in 5% CO2. […]

[4] = test system: ZIKV-induced cell death in human astrocytes; assay: ATP cell viability assay for ZIKV-induced cell death, human astrocytes; assay type: cell-based; settings: ZIKV-infected human astrocytes; for IC50: read-out: Cell viability (IC50, uM) Astrocyte
[5] = test system: ZIKV-induced cell death in SNB-19 cells; assay: ATP cell viability assay for ZIKV-induced cell death, SNB-19 cells; assay type: cell-based, human; settings: ZIKV-infected SNB-19 cells; for IC50: read-out: Cell viability (IC50, uM) SNB-19
Procedure: (§3) The reagent was reconstituted and prepared as described by the manufacturer. In order to measure the cell death caused by ZIKV infection, cells were cultured for 16 hours at 37° C. with 5% CO2 in assay plates, followed by the addition of ZIKV solution and incubation at 37° C. with 5% CO2 for 72 hours. ATPlite, the ATP monitoring reagent, was then added to the assay plates and they were incubated for 15 minutes. The resulting luminescence was measured using the ViewLux plate reader (Perkin Elmer). Data were normalized using the wells without cells as a control for 100% cell killing, and cell-containing wells without ZIKV infection were used as full cell viability (0% cell killing). […]
as §3, with “The ATPlite luminescence assay system assay kit (PerkinElmer) was used to determine cell viability. The reagent” for “The reagent”, “by the manufacture. In order” for “by the manufacturer. In order”, “followed by addition of” for “followed by the addition of”, “plates and incubated for” for “plates and they were incubated for”, “Elmer). Data was normalized using” for “Elmer). Data were normalized using”

| Compound | IC50 ([1]; Astrocyte) | Emax ([1]; Astrocyte) | IC50 ([2]; Homo sapiens) | Emax ([2]; Homo sapiens) | IC50 ([3]; Homo sapiens) | Emax ([3]; Homo sapiens) | Cell viability (efficacy, %) Astrocyte [4] | Cell viability (efficacy, %) SNB-19 [5] | Caspase 3 (efficacy, %) Astrocyte [1] | IC50 [1] | Caspase 3 (efficacy, %) SNB-19 [2] | IC50 [2] | Caspase 3 (efficacy, %) NPCs [3] | IC50 [3] | IC50 [4] | IC50 ([4]; Astrocyte) | IC50 ([5]; Homo sapiens) | IC50 [5] |
| --- | --- | --- | --- | --- | --- | --- | --- | --- | --- | --- | --- | --- | --- | --- | --- | --- | --- | --- |
| O=c1cc(-c2ccccc2)oc2cc(O)cc(O)c12 [5,7-Dihydroxyflavone] | 15.5 µM | 55.1% | 8.69 µM | 42.7% | 5.48 µM | 51% | 0.0% | 0.0% | – | – | – | – | – | – | – | – | – | – |
| CCC[S+]([O-])c1ccc2[nH]c(NC(=O)OC)nc2c1 (stereo not shown) [Albendazole oxide] | 15.5 µM | 78.8% | 21.8 µM | 86% | 12.3 µM | 88.1% | 0.0% | 0.0% | – | – | – | – | – | – | – | – | – | – |
| Nc1ccc(-c2ccc3ccccc3n2)cc1 [BF-170 hydrochloride] | – | – | – | – | – | – | 65.8% | 0.0% | 118% | 4.61 µM | 104% | 6.15 µM | 92.7% | 4.11 µM | 6.15 µM | – | – | – |
| O=c1cc(-c2ccccc2)oc2cc(O)c(O)c(O)c12 [Baicalein] | – | 0% | 29.1 µM | 50.6% | 18.4 µM | 57.5% | 0.0% | 0.0% | – | – | – | – | – | – | – | – | – | – |
| CCC(CC)CC1(C(=O)Nc2ccccc2SC(=O)C(C)C)CCCCC1 [Dalcetrapib] | – | 0% | – | 50.2% | 35.5 µM | 50.2% | 45.7% | 110% | – | – | – | – | – | – | – | 47.3 µM | 35.5 µM | – |
| O=c1c2ccccc2[se]n1-c1ccccc1 [Ebselen] | 8.2 µM | 93.8% | 17.3 µM | 117% | 8.2 µM | 109% | 0.0% | 0.0% | – | – | – | – | – | – | – | – | – | – |
| CC(/C=C1\SC(=S)N(CC(=O)O)C1=O)=C\c1ccccc1 [Epalrestat] | 19.5 µM | 93.3% | 20.6 µM | 79.2% | 15.5 µM | 72.1% | 0.0% | 82.1% | – | – | – | – | – | – | – | – | 5.48 µM | – |
| Cc1nc(-c2ccc(OCC(C)C)c(C#N)c2)sc1C(=O)O [Febuxostat] | 2.31 µM | 84.8% | 2.91 µM | 104% | 3.88 µM | 83.2% | 0.0% | 68.4% | – | – | – | – | – | – | – | – | 3.66 µM | – |
| CN(C)c1ccc(N=NS(=O)(=O)[O-])cc1.[Na+] [Fenaminosulf] | – | – | – | – | – | – | 0.0% | 36.7% | 58.5% | 35.5 µM | 0.0% | – | 0.0% | – | – | – | – | 15.8 µM |
| COc1ccc(-c2coc3cc(O)ccc3c2=O)cc1 [Formononetin] | 14.6 µM | 94.7% | 12.3 µM | 104% | 10.9 µM | 88.3% | 0.0% | 0.0% | – | – | – | – | – | – | – | – | – | – |
| O=c1c(-c2ccc(O)cc2)coc2cc(O[C@@H]3O[C@H](CO)[C@@H](O)[C@H](O)[C@H]3O)cc(O)c12 [Genistin] | 25.9 µM | 60.2% | 23.1 µM | 58.1% | 17.3 µM | 58.6% | 0.0% | 0.0% | – | – | – | – | – | – | – | – | – | – |
| COc1ccc([C@@H]2CC(=O)c3c(O)cc(O)cc3O2)cc1O [Hesperetin] | 16.4 µM | 72.7% | 17.3 µM | 86% | 10.9 µM | 79.6% | 0.0% | 0.0% | – | – | – | – | – | – | – | – | – | – |
| COc1cc2nc(N3CCN(C(=O)C4CCCO4)CC3)nc(N)c2cc1OC (stereo not shown) [Terazosin hydrochloride] | 12.3 µM | 88.9% | 17.3 µM | 77.3% | 10.9 µM | 84.4% | – | – | – | – | – | – | – | – | – | – | – | – |
